Test results reported in US10548856B2, “Compounds and methods for modulating serotonin receptors in the periphery” (Northeastern University, priority 2015, dated 2020).
Where two headings read alike, the source gives them in different places.

Assays:
Human 5-HT7 = molecular target: T1, Human 5-HT7 (Homo sapiens, UniProt P34969); test: In vitro binding affinity to serotonin 5-HT7 receptors using HEK293 cells
T1 construct: expressed in transfected cells; host or cells: HEK293
Description: 2015, 6, 1259-1270. The compounds are tertiary amines and available to bind 5-HT7 receptors both in the brain and in the periphery. Each of the compounds can be derivatized to a corresponding positively-charged quaternary amine, for example, by the addition of a third alkyl group, R3, to render it impermeable to the blood-brain barrier and specific for peripheral 5-HT7 receptors.

[1] = Plasma and brain concentrations after subcutaneous administration (LC-MS/MS); assay type: in vivo, C57Bl/6J mice; conditions: for concentration at 30 min / concentration at 60 min / concentration at 90 min: male, C57Bl/6J, mouse, 3.0 mg/kg subcutaneous, mice, mean (SEM); for concentration at 30 min: 30 min after injection; for concentration at 60 min: 60 min after injection; for concentration at 90 min: 90 min after injection
Method: At 30, 60, or 90 min later, mice were euthanized by rapid cervical dislocation and decapitation. Trunk blood was collected in pre-chilled, heparin-coated tubes. Brains were quickly excised and frozen in liquid nitrogen. Plasma was collected from blood after centrifugation for 5 min at 13,000 g. Whole brain samples were wrapped in foil, and brain and plasma samples were labeled and stored at −80° C. until liquid chromatography-mass spectrometry/mass spectrometry (LC-MS/MS) assays were performed. Frozen brain samples were weighed and homogenized in phosphate buffered saline (PBS), pH 7.4. After the first analysis, the extra brain homogenate was stored at −80° C. until they were thawed for a second, more dilute, analysis. Plasma samples were used directly upon arrival. The proteins from each plasma sample and a portion of each brain homogenate were immediately precipitated with 1:1 methanol:acetonitrile (4× starting volume) and internal standard ((−)-MBP^68) followed by centrifugation at 14,000 g for 5 minutes at 4° C. The resulting supernatants from each sample were dried under nitrogen. Each sample was reconstituted in methanol, vortexed, sonicated briefly, and centrifuged prior to LC-MS/MS analysis. Calibration curves were constructed from the ratios of the peak areas of 5-FPT versus (−)-MBP in extracted standards made in mouse plasma or homogenized mouse brain.
LC-MS/MS analysis was performed using an Agilent 1100 series HPLC and a Thermo Finnigan Quantum Ultra triple quad mass spectrometer. The mobile phases used were 0.1% formic acid in water (A) and 0.1% formic acid in methanol (B) in a 5 minute gradient. Samples of 10 μL each were injected onto a Phenomenex Gemini C18 column (2×50 mm, 5μ) with a C18 guard column. 5-FPT and its internal standard ((−)-MBP) were ionized in ESI+ and detected in SRM mode. Internal standards were used for quantification of the compound level per g tissue or per μL plasma. Four mice were included per group, but plasma levels from one mouse were not detectable due to low volume of blood collected.

DOI HTR = test: Attenuation of the DOI HTR; assay type: in vivo; conditions: 5.6 mg/kg
[2] = brain, read-out: Brain concentration
[3] = plasma, read-out: Plasma concentration

T1 sequence (P34969 1-445 isoform P34969-2): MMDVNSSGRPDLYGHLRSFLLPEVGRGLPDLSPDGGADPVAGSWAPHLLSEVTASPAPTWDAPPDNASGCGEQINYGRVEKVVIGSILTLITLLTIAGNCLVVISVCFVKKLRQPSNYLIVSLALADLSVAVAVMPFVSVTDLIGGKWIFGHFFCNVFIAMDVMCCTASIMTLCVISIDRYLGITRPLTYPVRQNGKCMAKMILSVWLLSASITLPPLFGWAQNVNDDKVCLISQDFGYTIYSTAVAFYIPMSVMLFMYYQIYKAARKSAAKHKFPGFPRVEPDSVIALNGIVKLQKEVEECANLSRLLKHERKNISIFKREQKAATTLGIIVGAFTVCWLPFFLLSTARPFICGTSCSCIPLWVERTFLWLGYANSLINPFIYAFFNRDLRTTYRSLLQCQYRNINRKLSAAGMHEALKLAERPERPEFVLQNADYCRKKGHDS

SMILES	Ki (Human 5-HT7) [nM]	also measured
CN(C)[C@@H]1CCc2c(cccc2-c2ccccc2F)C1 [(R)-Methyl / Phenyl-2′-F]	260 ± 53	
CN(C)C1CCc2c(cccc2-c2cccc(Cl)c2)C1 (racemic) [(R/S)-Methyl / Phenyl-3′-Cl]	18 ± 2.4	
CCCN(CCC)[C@@H]1CCc2c(cccc2-c2ccccc2)C1 [(R)-Propyl / Phenyl]	180 ± 31	
CN(C)[C@@H]1CCc2c(cccc2-c2ccccc2Cl)C1 [(R)-Methyl / Phenyl-2′-Cl]	58 ± 12	
COc1cc(-c2ccccc2)c2c(c1OC)CC(N(C)C)CC2 (racemic) [(R/S)-Methyl / 7,8-diOMe-5-Phenyl]	> 10000	
CN(C)C1CCc2c(cccc2OCc2ccccc2)C1 (racemic) [(R/S)-Methyl / O-Benzyl]	> 10000	
CCCN(CCC)[C@H]1CCc2c(cccc2-c2ccccc2)C1 [(S)-Propyl / Phenyl]	83 ± 5.8	
CN(C)[C@H]1CCc2c(cccc2-c2ccccc2)C1 [(S)-Methyl / Phenyl]	9 ± 0.4	
CN(C)C1CCc2c(cccc2-c2ccc(F)cc2)C1 (racemic) [(R/S)-Methyl / Phenyl-4′-F]	120 ± 17	
COc1cccc(-c2cccc3c2CCC(N(C)C)C3)c1 (racemic) [(R/S)-Methyl / Phenyl-3′-OMe]	37 ± 9	
CN(C)C1CCc2c(cccc2-c2ccccc2F)C1 (single isomer, unassigned; (+)) [(+)-5-FPT, 5-(2′-fluorophenyl)-N,N-dimethyl-1,2,3,4-tetrahydronaphthalen-2-amine]		Blood-brain barrier crossing ([1]; 30, 60 and 90 min after systemic administration): readily crosses the blood-brain barrier; Clearance in the periphery (plasma relative to brain levels) ([1]; as soon as 30 min post-administration): rapidly cleared in the periphery; concentration at 30 min [1, 2]: 1780 ng/g; concentration at 60 min [1, 2]: 2160 ng/g; concentration at 90 min [1, 2]: 1460 ng/g; concentration at 30 min [1, 3]: 114 ng/mL; concentration at 60 min [1, 3]: 118 ng/mL; concentration at 90 min [1, 3]: 70 ng/mL; Time for which attenuating effect on the DOI HTR remained significant (DOI HTR): up to 2 hrs; Block of the DOI HTR (DOI HTR; 3 hrs. post-administration): did not block the DOI HTR
CN(C)[C@@H]1CCc2c(cccc2-c2ccccc2)C1 [(R)-Methyl / Phenyl]	4400 ± 930	
CN(C)[C@H]1CCc2c(cccc2-c2ccccc2Cl)C1 [(S)-Methyl / Phenyl-2′-Cl]	6 ± 0.6	
CN(C)C1CCc2c(cccc2-c2cc(F)cc(F)c2)C1 (racemic) [(R/S)-Methyl / Phenyl-3′,5′-F]	180 ± 32	
CN(C)[C@H]1CCc2c(cccc2-c2cc(C(F)(F)F)cc(C(F)(F)F)c2)C1 [(S)-Methyl / Phenyl-3′,5′-CF3]	910 ± 260	
CN(C)C1CCc2c(cccc2-c2cccc(C(F)(F)F)c2)C1 (racemic) [(R/S)-Methyl / Phenyl-3′-CF3]	63 ± 6.6	
CN(C)C1CCc2c(cccc2-c2cccc(F)c2)C1 (racemic) [(R/S)-Methyl / Phenyl-3′-F]	34 ± 6.2	
CN(C)[C@H]1CCc2c(cccc2-c2ccc(Cl)cc2)C1 [(S)-Methyl / Pheny-4′-Cl]	72 ± 5.8	
CN(C)C1CCc2c(cccc2-c2ccc(F)cc2Cl)C1 (racemic) [(R/S)-Methyl / Phenyl-2′-Cl-4′-F]	30 ± 10	
CN(C)[C@H]1CCc2c(cccc2-c2ccccc2F)C1 [(S)-Methyl / Phenyl-2′-F]	6 ± 0.7	
CN(C)C1CCc2c(cccc2-c2cc(Cl)cc(Cl)c2)C1 (racemic) [(R/S)-Methyl / Phenyl-3′,5′-Cl]	40 ± 60	
CCCN(CCC)[C@@H]1CCc2c(cccc2-c2ccccc2F)C1 [(R)-Propyl / 2′-F-Phenyl]	63 ± 2.7	
CN(C)C1CCc2c(cccc2C2CCCC2)C1 (racemic) [(R/S)-Methyl / Cyclopentyl]	240 ± 35	
CCCN(CCC)[C@H]1CCc2c(cccc2-c2ccccc2F)C1 [(S)-Propyl / 2′-F-Phenyl]	35 ± 5.2	
